Tested on: Nucleic Acid
Assay: The compound was tested for its ability to inhibit the incorporation of tritiated thymidine into mammalian epithelial cells (DNA) at 30 uM dose
Assay type: cell-based
Conditions: Epithelial cell

SMILES | inhibition [%]
COP(=O)(OC[C@H]1OC(n2ccc(N)nc2=O)[C@@H](O)[C@@H]1O)OCC(Cl)(Cl)Cl (stereo partly drawn) | 22
CCOP(=O)(OC[C@H]1OC(n2ccc(N)nc2=O)[C@@H](O)[C@@H]1O)OCC(Cl)(Cl)Cl (single isomer, unassigned; form 2) | 30
CCCNP(=O)(OC[C@H]1OC(n2ccc(N)nc2=O)[C@@H](O)[C@@H]1O)OCC(Cl)(Cl)Cl (stereo partly drawn) | 45
CCCOP(=O)(OC[C@H]1OC(n2ccc(N)nc2=O)[C@@H](O)[C@@H]1O)OCC(Cl)(Cl)Cl (stereo partly drawn) | 40
Nc1ccn([C@@H]2O[C@H](CO)[C@@H](O)[C@@H]2O)c(=O)n1 | 83
CCCCNP(=O)(OC[C@H]1OC(n2ccc(N)nc2=O)[C@@H](O)[C@@H]1O)OCC(Cl)(Cl)Cl (stereo partly drawn) | 48
Nc1ccn(C2O[C@H](COP(=O)(OCC(Cl)(Cl)Cl)OCC(Cl)(Cl)Cl)[C@@H](O)[C@@H]2O)c(=O)n1 (stereo partly drawn) | 91
CCOP(=O)(OC[C@H]1OC(n2ccc(N)nc2=O)[C@@H](O)[C@@H]1O)OCC(Cl)(Cl)Cl (single isomer, unassigned; form 1) | 31

Reference: ChEMBL document CHEMBL1125851, “Trans-esterification reactions yield novel masked phosphate derivatives of the anti-cancer agent araC” (Bioorg Med Chem Lett, 1991)
